From patent US6090542A, “Process for inhibiting the transcription of genes” (Boehringer Ingelheim International GmbH, priority 1993, dated 2000)

Experiments:
IkB-α [1] = assay: Western blot analysis of IkB-α in HeLa cells after TNF-α stimulation; assay type: cell-based, human; conditions: HeLa cells, TNF-α, 50 μm
Description: (§1) The 7OZ/3 cells were treated with 50 E/ml IL-1β (Boehringer Mannheim) or with 15 μg/ml LPS (Sigma). Human HeLa cells were cultivated in DMEM, supplemented with 10%FCS and 1% L-glutamine and treated with 200 E/ml human recombinant TFN-α (genzyme).
As protease inhibitors Z-Ile-Glu(Ot-Bu)-Ala-leucinal (NBIG) and the chemically related substance Z-Leu-leucinal (Cbz-L-L) were used (Z standing for benzyloxycarbonyl).
In the figure the slower migrating form of IkB-α is identified with an asterisk.

NF-KB [2] = assay: EMSA of NF-KB activation in HeLa cells after TNF-α stimulation; assay type: cell-based, human; conditions: HeLa cells, TNF-α stimulation, Cbz-L-L
Description: as §1, with “The methods used in this example for the culture of the 7OZ/3 cells and the production of the cell extracts were implemented as stated in example 1. The” for “The”
The test arrangement in this example corresponded to that of example 4; HeLa cells were cultivated as stated in example 2 and TNF-α was used as inductor for the NF-KB activation. As protease inhibitors Z-Ile-Glu(Ot-Bu)-Ala-leucinal (NBIG) and the chemically related substance Z-Leu-leucinal (Cbz-L-L) were used (Z standing for benzyloxycarbonyl).
a) The electrophoretic mobility shift assays were carried out by using a ^32 P labelled oligonucleotide with a NF-KB binding site on whole cell extracts from HeLa cells. […] The ID50 value for NBIG was approx. 50 μM (FIG. 7B).

IkB-α [3] = assay: Western blotting of IkB-α in extracts of 7OZ/3 cells; assay type: cell-based, mouse
NF-KB [4] = assay: EMSA of NF-KB DNA binding activity in total cell extracts of stimulated 7OZ/3 cells; assay type: cell-based, mouse
Description: 7OZ/3 cells (ATCC No. TIB 158) were cultivated in RPMI-1640 medium (Gibco BRL), supplemented by 10% FCS (Gibco BRL) and 50 μM 2-mercaptoethanol. 2 ml aliquots with approx. 2-3×10^6 of suspended cells was treated with 50 ng/ml PMA (Sigma) for various periods. The treatment was interrupted by immediate centrifugation (5 s in an Eppendorf Microfuge) and cooling on ice. The cell pellets were lysed with 60 μl of a high-salt extraction buffer, containing the non-ionic detergent nonidet P-40 (Baeuerle and Baltimore, 1988b). The supernatant of a 15 minute centrifugation at 13.000 rpm in an Eppendorf Microfuge was analysed by Western blotting and EMSA (electrophoretic mobility shift assay). For SDS-PAGE and Western blotting 30 μl aliquots of the extracts were mixed with 15 μl SDS sample buffer (Laemmli, 1970), boiled and subjected to a SDS-PAGE on 12.5% polyacrylamide minigels (Biorad). The proteins were transferred by using a so-called semi-dry blotting device (Biorad; 1 h at 15V/2.5 mA/cm2) from the gels onto IMMOBILON-P-filter (0.45 μm; Millipore). The efficiency of the blot was checked by protein staining of the filters with Ponceau S (Serva). The filters were blocked overnight in a Tris-buffered saline solution, containing 0,1% (v/v) TWEEN-20 (TBST), 5% low-fat milk powder (Nestle) and 1% BSA. The filter was then incubated for one hour at ambient temperature with anti IkB-α IgG in a dialysed eluate of the IkB-α affinity column and diluted by 1:100 in the blocking buffer. After washing for 30 minutes in TBST the filter was incubated in a 1:4000 solution of goat-anti-rabbit IgG/horseradish-peroxidase conjugate (Biorad) in blocking buffer. After washing for 30 minutes in TBST the filter was treated with ECL detecting reagent (Amersham) and exposed (Kodak XR film, less than 1 minute). For EMSA 2 μl aliquots of the extracts were added to a binding mixture, resulting in a final concentration of […], […], pH 7.9, […] dithiothreitol, […] phenylmethylsulfonylfluoride (PMSF), 0.2% NONIDET P-40, 5% FICOLL, 20 μg BSA, 3 μg Poly (dl-dC) and 10.000 cpm (Cerenkov counting method) of a ^32 P marked double-stranded KB-oligonucleotide probe (Gibco BRL). The specificity of the protein DNA complex was confirmed by competition experiments and supershifting with a polyclonal antibody, recognising the C-terminal 100 amino acids of Rel-A (p65). After 20 minutes of incubation on ice the samples were subjected to electrophoresis on native 4% polyacrylamide gels, run in 0.5× TBE. The dried gels were exposed (Kodak XR film, -70° C., overnight).
Cell cultures, extract production, SDS-PAGE and Western blotting were carried out according to example 1. The cells were […] in 25 μm TPCK or TLCK (both from Sigma), and pre-treated in dimethylsulfoxide (DMSO). The control cultures received an equivalent amount of DMSO.
The results of the experiments are shown in FIG. 4: A: Effect of TPCK on the induction by PMA. The cells were treated without (left panel) or in presence of TPCK with PMA for the stipulated periods. The cell extracts were tested for the DNA binding activity of NF-KB using EMSA (top panel) and for the IkB-α protein quantity using Western blotting (bottom panel). The position of the NF-KB-DNA complex in a section of a fluorogram of a native gel is shown by a filled arrowhead. […] B: Effect of TPCK on the activation of NF-KB by IL-1β (I), LPS (L) and PMA (P) in 7OZ/3 cells; in control cells (Co). The cells were treated with TPCK for 10 minutes before stimulation (lanes 6-8) or for an additional 10 minutes after stimulation (lanes 10-12; 30 minutes with IL-1β and PMA or 60 minutes with LPS). The total cell extracts of control cells (lanes 1-4) and cells treated with TPCK (lanes 5-12) were tested for the DNA binding activity of NF-KB using EMSA; a section of a fluorogram of a native gel is shown. […] C: Effect of TLCK on the activation of NF-KB by PMA. […]

7OZ/3 cells = conditions: 10 μg/ml; cited from earlier work
NF-KB [5] = assay: Activation of NF-KB with TNF-α in various other cell lines; assay type: cell-based
nuclear-factor oct-1 = assay: EMSA of constitutive DNA binding activity in 7OZ/3 cells; assay type: cell-based, mouse; conditions: 7OZ/3 cells treated with TPCK
Description: 7OZ/3 cells (ATCC No. TIB 158) were cultivated in RPMI-1640 medium (Gibco BRL), supplemented by 10% FCS (Gibco BRL) and 50 μM 2-mercaptoethanol. 2 ml aliquots with approx. 2-3×10^6 of suspended cells was treated with 50 ng/ml PMA (Sigma) for various periods. The treatment was interrupted by immediate centrifugation (5 s in an Eppendorf Microfuge) and cooling on ice. The cell pellets were lysed with 60 μl of a high-salt extraction buffer, containing the non-ionic detergent nonidet P-40 (Baeuerle and Baltimore, 1988b). The supernatant of a 15 minute centrifugation at 13.000 rpm in an Eppendorf Microfuge was analysed by Western blotting and EMSA (electrophoretic mobility shift assay). For SDS-PAGE and Western blotting 30 μl aliquots of the extracts were mixed with 15 μl SDS sample buffer (Laemmli, 1970), boiled and subjected to a SDS-PAGE on 12.5% polyacrylamide minigels (Biorad). The proteins were transferred by using a so-called semi-dry blotting device (Biorad; 1 h at 15V/2.5 mA/cm2) from the gels onto IMMOBILON-P-filter (0.45 μm; Millipore). The efficiency of the blot was checked by protein staining of the filters with Ponceau S (Serva). The filters were blocked overnight in a Tris-buffered saline solution, containing 0,1% (v/v) TWEEN-20 (TBST), 5% low-fat milk powder (Nestle) and 1% BSA. […]

PKC = conditions: cited from earlier work
[6] = 7OZ/3 cells, one-hour treatment with cycloheximide, no PMA
[7] = PMA treated 7OZ/3 cells, 100 μM PDTC

CC(C)CC(C=O)NC(=O)C(CC(C)C)NC(=O)OCc1ccccc1 [Cbz-L-L, Z-Leu-leucinal]
inhibition of IkB-α degradation and accumulation of modified IkB-α (IkB-α [1]): does not show these effects
prevention of NF-KB-DNA complex formation (NF-KB [2]): did not occur

C[C@@H]1C[C@@H]([C@H](O)CC2CC(=O)NC(=O)C2)C(=O)[C@@H](C)C1 [cycloheximide]
reoccurrence of IkB-α 40 minutes after PMA treatment (IkB-α [3]; 7OZ/3 cells pre-treated with cycloheximide, then PMA): prevents
IkB-α detected by Western blotting (IkB-α [3]; [6]): large amounts
half-life of IkB-α (IkB-α [3]; cycloheximide-treated 7OZ/3 cells, without PMA, quantitative Western blotting): approx. 138 minutes
binding of NF-KB to DNA (NF-KB [4]; [6]): induced only slightly
inhibition of protein synthesis (7OZ/3 cells): 90%

Cc1ccc(S(=O)(=O)N[C@@H](Cc2ccccc2)C(=O)CCl)cc1 [TPCK, p-tosyl-L-phenylalaninechloromethylketone]
degradation of IkB-α in PMA treated cells (Western blot) (IkB-α [3]; 7OZ/3 cells, TPCK, PMA): completely prevent
activation of NF-KB with TNF-α (NF-KB [5]): effective in preventing
constitutive DNA binding activity, including nuclear-factor oct-1 (nuclear-factor oct-1): not significantly influenced
ID50 (NF-KB-DNA binding activity) (NF-KB [4]; 7OZ/3 cells, PMA treatment): approx. 8 μM
activation of NF-KB by IL-IB and LPS (NF-KB [4]; 7OZ/3 cells, inhibitor before stimulation): effective in preventing
suppression of NF-KB-DNA binding activity (NF-KB [4]; 7OZ/3 cells, one-hour treatment with 25 μM, subsequent PMA treatment): completely suppress
NF-KB activation, inhibitor given after stimulation (NF-KB [4]; 7OZ/3 cells, treatment after stimulation with PMA, IL-1 or LPS): hardly impaired

Cc1ccc(S(=O)(=O)N[C@@H](CCCCN)C(=O)CCl)cc1 [TLCK, p-tosyl-L-lysinchloromethylketone]
inhibition of the NF-KB activation (NF-KB [4]; 7OZ/3 cells, 100 μM TLCK): partial inhibition
prevention of the activation of NF-KB (NF-KB [4]; 7Z/3 cells, 25 μM, PMA): unable to prevent

S=C(S)N1CCCC1 [PDTC, pyrrolidindithiocarbamate]
degradation of IkB-α protein (Western blot) (IkB-α [3]; [7]): no significant degradation
interference with PMA induced membrane association and kinase activity of PKC (PKC): does not interfere
activation of NF-KB binding activities (NF-KB [4]; [7]): effectively suppressed
